# Columns and labels:
# [1] = tested on: adhesion of rDIII on cultured hBMECs; experiment: Blocking of adhesion of rDIII on cultured hBMECs by peptides (immunocytochemistry); assay type: cell-based, human; conditions: 5 µg (0.39 nM) rDIII pre-blocked with tenfold molar excess (3.9 nM) of peptide
# Procedure: Cells were cultured as described in Supplementary Method S1. First, concentration-dependent immunocytochemistry was performed to reveal the minimum concentration of rDIII required to detect its adhesion to the endothelial cells. Details are presented in Supplementary Method S14.
# After that, the ability of peptides to block the adhesion of rDIII to the culture of hBMECs was judged. A tenfold molar excess of each peptide was incubated with rDIII for 1 h at room temperature. Pre-incubated rDIII was subsequently used in the assay. Details are described in the Supplementary Method S14. […]
# Blocking of adhesion of rDIII on cultured hBMECs by peptides (immunocytochemistry). First, different concentrations of rDIII were tested to get the minimum concentration of rDIII required to detect the adhesion of the domain to the cultured hBMECs. In short, hBMECs were cultured on collagen type I (Sigma) coated coverslips in a 12-well culture plate in EBM-2 medium (Lonza) as was described in Supplementary Method S1 until 70% confluency. Cells were washed 2 times with PBS (pH 7.4) and fixed with acetone/ethanol (8:2 [v/v]) for 10 min at 4°C. Cells were washed 3 times with PBS (pH 7.4) and incubated with rDIII at different concentrations (20 µg, 15 µg, 10 µg, 5 µg, 2.5 µg, 2 µg, and 1 µg) diluted in 1 mL of PBS (pH 7.4) for 1 h at room temperature with gentle shaking. […]
# hBMECs = experiment: Peptide cytotoxicity assay (XTT); assay type: cell-based, human; conditions: 1 μM, 2 μM, 4 μM and 6 μM; 24 h
# Procedure: The toxicity of peptides was determined by the XTT test (AppliChem, USA) as per the manufacturer’s instructions. Details are presented in Supplementary Method S15. […]
# Cytotoxicity assay. hBMECs were cultured in 96-well TPP tissue culture plates (Sigma) in supplemented EBM-2 medium (Lonza) to obtain ~70% confluency (as described in Supplementary Method S1). The peptides in concentrations of 1 µM, 2 µM, 4 µM, and 6 µM (diluted in 100 µL of EBM-2 medium supplemented only with 10% FBS, 10 mM HEPES and 1 ng/mL bFGF; Sigma) were added and incubated for 24 h at 37°C in a humid atmosphere of 5% CO2. Untreated cells served as a negative control (100% viability). For positive control, cells treated with 0.01% Triton X-100 were used. After incubation, the mixture of XTT and activation reagent (5:0.1 [v/v], 50 µL each well) was added to each well and incubated for an additional 3 h at 37°C in a humid atmosphere of 5% CO2. The absorbance was measured at 450 nm. The assay was performed in replicates. The viability (%) of endothelial cells was calculated using the formula: Cell viability (%) = [(A - xA ) × 100] / (xA -
# Hemolysis assay = assay type: cell-based; conditions: sheep, red blood cells (washed, in saline); 1 μM and 6 μM; 1 h and 5 h; threshold for hemolytic activity > 10%; read-out: hemolysis, maximum release of the hemoglobin
# Procedure: Hemolysis assay was performed according to the method of Bender et al.[94]. Details are presented in Supplementary Method S16. […]
# Assessment of the hemolytic activity. Sheep whole blood (10 mL) was centrifuged at 2000 rpm for 5 min at room temperature. The red blood cells (RBCs) were carefully separated from […]
# plasma and washed 3 times with saline (0.9% NaCl). The washed RBCs were resuspended in saline (50 mL). Peptides at two different concentrations (1 µM and 6 µM) resuspended in saline solution (100 µL) were added to the RBCs suspension (100 µL). As a positive control (100% lysis), 0.1% Triton X-100 was used. Negative control (0% lysis) was prepared by adding only saline (100 µL) to the RBCs suspension (100 µL). All samples were incubated at 37°C for 1 h and 5 h. The mixtures were gently shaked every 30 min. After incubation, the RBCs were separated by centrifugation (2000 rpm for 5 min) and the supernatant (100 µL) was incubated for 30 min at ambient conditions to oxidize the hemoglobin. The absorbance of oxyhemoglobin present in the supernatant was assessed by absorption at 414 nm. The assay was performed in triplicates. The hemolysis (%) of the RBCs was calculated using the following formula: Hemolysis (%) = [(Asample - xĀ negative control) / xĀ positive control] × 100. […]
# (TCID50/ml) exactly as described before1. […]
smiles,measurement,setting,value
"CC[C@H](C)[C@@H]1NC(=O)[C@@H](NC(=O)[C@H](C)N)CSSC[C@@H](C(=O)NCC(=O)NCC(=O)NCC(=O)N[C@@H](CO)C(=O)O)NC(=O)[C@H](C)NC(=O)[C@H](CCCNC(=N)N)NC(=O)[C@H]([C@@H](C)O)NC(=O)[C@H](CO)NC(=O)[C@H](CO)NC(=O)[C@H](Cc2c[nH]cn2)NC1=O [CP4, CIHSSTRAC]",inhibition of the adhesion of rDIII on endothelial cells (immunocytochemistry),[1],able to inhibit the adhesion of rDIII on the endothelial cells
same,cytotoxic effect on hBMECs (XTT),hBMECs,None of the peptides was toxic
same,hemolysis,Hemolysis assay,< 0.15%

# Reference: paper PMC8505397, “Development of peptides targeting receptor binding site of the envelope glycoprotein to contain the West Nile virus infection” (Scientific Reports, 2021)
